Laboratory results as given in paper PMC6099706, “Anti-Mycobacterium tuberculosis Activity of Esters of Quinoxaline 1,4-Di-N-Oxide” (Molecules : A Journal of Synthetic Chemistry and Natural …, 2018).
In brackets after ≈: the same amount, converted by molar mass.

How the values were obtained:
[1] = tested on: Mycobacterium tuberculosis strain H37Rv; test: microplate Alamar blue assay (MABA); format: cell-based; conditions: for MIC: Mycobacterium tuberculosis, H37RV; for MIC / MABA MIC: M. tuberculosis H37Rv, lowest concentration effecting 90% inhibition; for MABA percentage in parentheses after the MIC bound: meaning not defined in the paper, printed beside the highest concentration
[2] = tested on: nonreplicating persistent (NRP) M. tuberculosis strain; test: microbe, parasite or virus in culture; format: cell-based, Mycobacterium tuberculosis; conditions: for MIC: Mycobacterium tuberculosis, read-out: LORA MIC; for LORA percentage in parentheses after the MIC bound: meaning not defined in the paper, printed beside the highest concentration
[3] = target: M. tuberculosis gyrase (GyrA and Gyr B subunits) (Mycobacterium tuberculosis, UniProt P9WG45+P9WG47); test: M. tuberculosis gyrase supercoiling assay; format: biochemical; conditions: at 50 μM
Chain of M. tuberculosis gyrase (GyrA and Gyr B subunits) (P9WG45 whole entry): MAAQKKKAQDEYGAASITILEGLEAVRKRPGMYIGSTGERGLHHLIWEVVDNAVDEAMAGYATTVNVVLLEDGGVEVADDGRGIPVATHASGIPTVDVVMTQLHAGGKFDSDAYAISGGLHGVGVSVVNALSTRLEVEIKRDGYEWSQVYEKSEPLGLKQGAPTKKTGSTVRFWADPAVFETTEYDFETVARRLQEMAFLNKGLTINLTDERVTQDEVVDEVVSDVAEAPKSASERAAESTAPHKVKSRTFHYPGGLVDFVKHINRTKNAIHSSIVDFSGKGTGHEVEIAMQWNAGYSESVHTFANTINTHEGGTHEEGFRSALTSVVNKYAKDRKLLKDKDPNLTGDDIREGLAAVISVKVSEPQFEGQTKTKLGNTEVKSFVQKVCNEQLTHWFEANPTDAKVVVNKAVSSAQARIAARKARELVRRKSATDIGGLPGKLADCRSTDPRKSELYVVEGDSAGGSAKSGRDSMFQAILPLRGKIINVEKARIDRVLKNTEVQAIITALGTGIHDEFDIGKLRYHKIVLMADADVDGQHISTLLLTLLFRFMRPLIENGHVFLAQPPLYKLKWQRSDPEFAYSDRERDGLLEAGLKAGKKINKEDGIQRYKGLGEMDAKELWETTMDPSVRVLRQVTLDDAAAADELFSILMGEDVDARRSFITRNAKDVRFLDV
Chain of M. tuberculosis gyrase (GyrA and Gyr B subunits) (P9WG47 whole entry): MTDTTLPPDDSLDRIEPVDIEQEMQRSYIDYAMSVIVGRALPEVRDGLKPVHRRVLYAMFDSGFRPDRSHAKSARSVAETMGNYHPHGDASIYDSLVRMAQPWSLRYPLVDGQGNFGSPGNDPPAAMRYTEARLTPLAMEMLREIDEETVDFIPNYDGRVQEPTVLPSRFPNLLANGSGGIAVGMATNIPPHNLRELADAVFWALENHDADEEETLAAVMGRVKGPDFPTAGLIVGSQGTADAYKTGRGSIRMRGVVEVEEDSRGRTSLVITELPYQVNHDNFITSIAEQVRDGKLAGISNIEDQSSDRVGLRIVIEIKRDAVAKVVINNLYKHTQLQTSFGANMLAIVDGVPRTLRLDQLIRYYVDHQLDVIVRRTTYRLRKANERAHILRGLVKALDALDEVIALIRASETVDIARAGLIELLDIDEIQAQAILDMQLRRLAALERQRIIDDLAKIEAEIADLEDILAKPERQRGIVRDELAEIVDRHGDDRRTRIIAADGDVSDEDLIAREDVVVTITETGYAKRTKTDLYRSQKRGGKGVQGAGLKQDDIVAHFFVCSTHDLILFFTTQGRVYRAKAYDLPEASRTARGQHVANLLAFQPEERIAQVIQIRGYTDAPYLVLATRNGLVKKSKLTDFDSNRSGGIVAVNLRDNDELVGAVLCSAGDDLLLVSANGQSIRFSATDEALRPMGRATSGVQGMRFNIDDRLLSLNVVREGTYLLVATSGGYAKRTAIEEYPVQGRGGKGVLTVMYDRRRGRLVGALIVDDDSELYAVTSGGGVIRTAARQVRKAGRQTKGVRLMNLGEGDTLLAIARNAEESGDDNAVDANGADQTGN
Description: The activity of the enzyme was determined prior to the testing of the quinoxaline 1,4-di-N-oxide derivatives and 1 U was defined as the amount of enzyme required to just fully supercoil the substrate under test conditions. Compounds were tested at 50 μM. Final DMSO concentration in the assays was 1% (v/v).
1 U of M. tuberculosis gyrase (GyrA and Gyr B subunits) (final concentration in assay 50 nM) was incubated with 0.5 μg of relaxed pBR322 DNA in a 30 μL reaction at 37 °C for 30 min under the following conditions: 50 mM HEPES. KOH (pH 7.9), 6 mM magnesium acetate, 4 mM DTT, 1 mM ATP, 100 mM potassium glutamate, 2 mM spermidine and 0.05 mg/mL albumin.
Each reaction was stopped by the addition of 30 μL chloroform/iso-amyl alcohol (26:1) and 20 μL Stop Dye (40% sucrose, 100 mM Tris.HCl (pH 7.5), 10 mM EDTA, 0.5 μg/mL bromophenol blue), before being loaded on a 1.0% TAE (Tris.acetate […], EDTA […]) gel run at 80 V for 2 h.
Bands were visualized by ethidium staining for 10 min, destained for 10 min in water, analyzed by gel documentation equipment (Syngene, Cambridge, UK), and quantified using Syngene software (Genetools version 4.00 (1997–1998), Syngene, A division of Synoptics Corp, Cambridge, UK).
Raw gel data (fluorescent band volumes) collected from Syngene’s GeneTools gel analysis software were converted to a % of the 100% control (the supercoiled enzyme plus DMSO control DNA band). These were analyzed using SigmaPlot Version 13.0 (Systat Software Inc., London, UK; 2016).

M. tb H37Rv = test: MIC on M. tb H37Rv (Table 4 panel); format: cell-based; conditions: Mycobacterium tuberculosis
[4] = nonreplicating persistent strain

COC(=O)c1ccc2c(c1)[n+]([O-])c(C(=O)C(C)C)c(C(F)(F)F)[n+]2[O-] [Compound T-039]
MIC [1]: 1.54 µg/mL (≈ 4.3 µM) | MIC [2, 4]: 0.83 µg/mL (≈ 2.32 µM)

CCCOC(=O)c1ccc2c(c1)[n+]([O-])c(C(=O)c1ccccc1)c(C(F)(F)F)[n+]2[O-] [Compound T-115]
MIC [1]: 1.5 µg/mL (≈ 3.57 µM)

CCC(=O)c1c(C(F)(F)F)[n+]([O-])c2ccc(C(=O)OC)cc2[n+]1[O-] [Compound T-038]
MIC [1]: < 0.4 µg/mL | inhibitory effect on M. tuberculosis gyrase supercoiling [3]: none of the compounds showed an inhibitory effect

COC(=O)c1cc2c(cc1OC)no[n+]2[O-] [Compound T-036]
MABA MIC [1]: >128 µg/mL | MIC [1]: > 100 µg/mL

COC(=O)c1c(C)[n+]([O-])c2ccc(C(=O)OC(C)C)cc2[n+]1[O-] [Compound T-064]
MIC [1]: 0.58 µg/mL (≈ 1.81 µM) | MIC [2, 4]: 0.56 µg/mL (≈ 1.75 µM) | inhibitory effect on M. tuberculosis gyrase supercoiling [3]: none of the compounds showed an inhibitory effect

CCOC(=O)c1c(-c2ccccc2)[n+]([O-])c2ccc(C(=O)OC)cc2[n+]1[O-] [Compound T-042]
MIC [1]: 1 µg/mL (≈ 2.71 µM) | MIC [2, 4]: 0.5 µg/mL (≈ 1.36 µM)

COC(=O)c1ccc2c(c1)[n+]([O-])c(C(=O)Nc1ccccc1)c(C)[n+]2[O-] [Compound T-012]
MIC [1]: 1.07 µg/mL (≈ 3.03 µM) | MIC [2, 4]: 0.86 µg/mL (≈ 2.43 µM) | inhibitory effect on M. tuberculosis gyrase supercoiling [3]: none of the compounds showed an inhibitory effect

CCOC(=O)c1c(C)[n+]([O-])c2ccc(C(=O)OC(C)C)cc2[n+]1[O-] [Compound T-065]
MIC [1]: 0.7 µg/mL (≈ 2.09 µM) | MIC [2, 4]: 0.5 µg/mL (≈ 1.5 µM)

Cc1c(C(=O)Nc2ccccc2)[n+]([O-])c2cc(C(=O)OC(C)C)ccc2[n+]1[O-] [Compound T-097]
MIC [1]: > 20 µg/mL | MABA percentage in parentheses after the MIC bound [1]: 6% | MIC [2, 4]: > 20 µg/mL | LORA percentage in parentheses after the MIC bound [2]: 33%

CC(=O)c1c(C)[n+]([O-])c2ccc(C(=O)OC(C)C)cc2[n+]1[O-] [Compound T-084]
MIC [1]: 0.8 µg/mL (≈ 2.63 µM) | MIC [2, 4]: 0.6 µg/mL (≈ 1.97 µM)

Cc1c(C(=O)OC(C)(C)C)[n+]([O-])c2cc(C(=O)OC(C)C)ccc2[n+]1[O-] [Compound T-066]
MIC [1]: 68.6 µg/mL (≈ 189 µM) | MIC [2, 4]: > 100 µg/mL | LORA percentage in parentheses after the MIC bound [2]: 77%

CCCOC(=O)c1ccc2c(c1)[n+]([O-])c(C(=O)Nc1ccccc1)c(C)[n+]2[O-] [Compound T-125]
MIC [1]: 12.3 µg/mL (≈ 32.3 µM) | inhibitory effect on M. tuberculosis gyrase supercoiling [3]: none of the compounds showed an inhibitory effect

Cc1c(C(=O)c2ccccc2)[n+]([O-])c2cc(C(=O)OC(C)C)ccc2[n+]1[O-] [Compound T-098]
MIC [1]: 4.59 µg/mL (≈ 12.5 µM) | MIC [2, 4]: 2.87 µg/mL (≈ 7.83 µM)

COC(=O)c1ccc2c(c1)[n+]([O-])c(C(C)=O)c(C)[n+]2[O-] [Compound T-034]
MIC [1]: 1.1 µg/mL (≈ 3.98 µM) | MIC [2, 4]: 0.7 µg/mL (≈ 2.53 µM)

NNC(=O)c1ccncc1 [INH, isoniazid, reference compound]
MIC [1]: 0.12 µg/mL (≈ 0.875 µM) | MIC [2, 4]: > 128 µg/mL

CCCOC(=O)c1ccc2c(c1)[n+]([O-])c(C(=O)OCC)c(C(F)(F)F)[n+]2[O-] [Compound T-124]
MIC [1]: 3 µg/mL (≈ 7.73 µM)

CCCOC(=O)c1ccc2c(c1)[n+]([O-])c(C(=O)OCC)c(C)[n+]2[O-] [Compound T-090]
MIC [1]: 0.8 µg/mL (≈ 2.39 µM)

Cc1c(C(N)=O)[n+]([O-])c2cc(C(=O)OC(C)C)ccc2[n+]1[O-] [Compound T-108]
MIC [1]: 22.5 µg/mL (≈ 73.7 µM) | inhibitory effect on M. tuberculosis gyrase supercoiling [3]: none of the compounds showed an inhibitory effect

CCOC(=O)c1ccc2c(c1)[n+]([O-])c(C(=O)c1ccccc1)c(C)[n+]2[O-] [Compound T-004]
MIC [1]: 2.32 µg/mL (≈ 6.58 µM) | MIC [2, 4]: 0.61 µg/mL (≈ 1.73 µM)

CO[C@H]1/C=C/O[C@@]2(C)Oc3c(C)c(O)c4c(O)c(c(/C=N/N5CCN(C)CC5)c(O)c4c3C2=O)NC(=O)/C(C)=C\C=C\[C@H](C)[C@H](O)[C@@H](C)[C@@H](O)[C@@H](C)[C@H](OC(C)=O)[C@@H]1C [RMP, rifampicin, reference compound]
MIC [1]: 0.03 µg/mL (≈ 0.0365 µM) | MIC (M. tb H37Rv): < 0.06 µg/mL | MIC [2, 4]: 0.89 µg/mL (≈ 1.08 µM)

CCOC(=O)Cc1c(C(=O)OCC)[n+]([O-])c2cc(C(=O)OC(C)C)ccc2[n+]1[O-] [Compound T-067]
MIC [1]: 3.41 µg/mL (≈ 8.39 µM) | MIC [2, 4]: 2.47 µg/mL (≈ 6.08 µM)

CCCOC(=O)c1ccc2no[n+]([O-])c2c1 [Compound T-074]
MIC [1]: 0.87 µg/mL (≈ 3.92 µM) | MIC [2, 4]: 4.62 µg/mL (≈ 20.8 µM)

COC(=O)c1ccc2c(c1)[n+]([O-])c(C(=O)c1ccccc1)c(C)[n+]2[O-] [Compound T-003]
MIC [1]: 3.47 µg/mL (≈ 10.3 µM) | MIC [2, 4]: 1.49 µg/mL (≈ 4.4 µM) | inhibitory effect on M. tuberculosis gyrase supercoiling [3]: none of the compounds showed an inhibitory effect

CCOC(=O)c1ccc2c(c1)[n+]([O-])c(C(=O)OCC)c(C)[n+]2[O-] [Compound T-015]
MIC [1]: 0.5 µg/mL (≈ 1.56 µM) | MIC [2, 4]: 0.49 µg/mL (≈ 1.53 µM)

CCCOC(=O)c1ccc2c(c1)[n+]([O-])c(C(=O)C(C)(C)C)c(C)[n+]2[O-] [Compound T-091]
MIC [1]: > 100 µg/mL | MABA percentage in parentheses after the MIC bound [1]: 33%

CCCOC(=O)c1ccc2c(c1)[n+]([O-])c(C(=O)c1ccccc1)c(C)[n+]2[O-] [Compound T-132]
MIC [1]: 2.3 µg/mL (≈ 6.28 µM)

CCCOC(=O)c1ccc2c(c1)[n+]([O-])c(C(C)=O)c(C(F)(F)F)[n+]2[O-] [Compound T-113]
MIC [1]: 3 µg/mL (≈ 8.37 µM)

CCCOC(=O)c1ccc2c(c1)[n+]([O-])c(C(C)=O)c(C)[n+]2[O-] [Compound T-126]
MIC [1]: 3 µg/mL (≈ 9.86 µM)

CCCOC(=O)c1ccc2c(c1)[n+]([O-])c(C(=O)c1ccco1)c(C(F)(F)F)[n+]2[O-] [Compound T-114]
MIC [1]: 2.9 µg/mL (≈ 7.07 µM) | inhibitory effect on M. tuberculosis gyrase supercoiling [3]: none of the compounds showed an inhibitory effect

CC(C)OC(=O)c1ccc2c(c1)[n+]([O-])c(C(=O)c1ccccc1)c(C(F)(F)F)[n+]2[O-] [Compound T-071]
MIC [1]: 1.19 µg/mL (≈ 2.83 µM) | MIC [2, 4]: 0.64 µg/mL (≈ 1.52 µM)

CCCOC(=O)c1ccc2c(c1)[n+]([O-])c(C(=O)OCC)c(C(=O)C(=O)OCC)[n+]2[O-] [Compound T-112]
MIC [1]: 1.4 µg/mL (≈ 3.33 µM)

CCCOC(=O)c1ccc2c(c1)[n+]([O-])c(C(=O)C(C)C)c(C(F)(F)F)[n+]2[O-] [Compound T-111]
MIC [1]: 1.5 µg/mL (≈ 3.88 µM)

CC(C)OC(=O)c1ccc2no[n+]([O-])c2c1 [Compound T-063]
MIC [1]: 1.4 µg/mL (≈ 6.3 µM) | MIC [2, 4]: 3.04 µg/mL (≈ 13.7 µM)

CCOC(=O)c1c(C)[n+]([O-])c2ccc(C(=O)OC)cc2[n+]1[O-] [Compound T-013]
MIC [1]: 0.47 µg/mL (≈ 1.53 µM) | MIC [2, 4]: 0.54 µg/mL (≈ 1.76 µM) | inhibitory effect on M. tuberculosis gyrase supercoiling [3]: none of the compounds showed an inhibitory effect

CCOC(=O)c1ccc2c(c1)[n+]([O-])c(C(N)=O)c(C)[n+]2[O-] [Compound T-045]
MABA MIC [1]: 29.83 µg/mL | MIC [1]: > 22 µg/mL | MIC [2, 4]: 100 µg/mL (≈ 344 µM)

CCCOC(=O)c1ccc2c(c1)[n+]([O-])c(C(N)=O)c(C)[n+]2[O-] [Compound T-130]
MIC [1]: 2.9 µg/mL (≈ 9.5 µM)

CC(=O)c1c(C(F)(F)F)[n+]([O-])c2ccc(C(=O)OC(C)C)cc2[n+]1[O-] [Compound T-070]
MIC [1]: ≤ 0.15 µg/mL | MIC [2, 4]: 0.24 µg/mL (≈ 0.67 µM)

CC(C)OC(=O)c1ccc2c(c1)[n+]([O-])c(C(=O)c1ccco1)c(C(F)(F)F)[n+]2[O-] [Compound T-073]
MIC [1]: 0.7 µg/mL (≈ 1.71 µM) | MIC [2, 4]: 0.6 µg/mL (≈ 1.46 µM)

CCOC(=O)c1ccc2c(c1)[n+]([O-])c(C(=O)OCC)c(-c1ccccc1)[n+]2[O-] [Compound T-043]
MIC [1]: 0.54 µg/mL (≈ 1.41 µM) | MIC [2, 4]: 0.47 µg/mL (≈ 1.23 µM)

CC(C)OC(=O)c1ccc2c(c1)[n+]([O-])c(C(=O)C(C)(C)C)c(C(C)(C)C)[n+]2[O-] [Compound T-107]
MIC [1]: 2.1 µg/mL (≈ 5.41 µM)

CCOC(=O)c1ccc2c(c1)[n+]([O-])c(C(=O)CC)c(C(F)(F)F)[n+]2[O-] [Compound T-026]
MABA MIC [1]: 22.5 µg/mL | MIC [1]: > 22 µg/mL | MIC [2, 4]: 2.5 µg/mL (≈ 6.98 µM)

COC(=O)c1ccc2no[n+]([O-])c2c1 [Compound T-014]
MIC [1]: 7.6 µg/mL (≈ 39.1 µM) | MIC [2, 4]: 13 µg/mL (≈ 66.9 µM)

[O-][n+]1onc2ccccc21 [Compound T-046]
MABA MIC [1]: 58.5 µg/mL | LORA MIC [2, 4]: 46.97 µg/mL

CCOC(=O)Cc1c(C(=O)OCC)[n+]([O-])c2cc(C(=O)OC)ccc2[n+]1[O-] [Compound T-037]
MIC [1]: 1.2 µg/mL (≈ 3.17 µM) | MIC [2, 4]: 1.9 µg/mL (≈ 5.02 µM)
